Here are results for two molecules from patent US20220280543A1, “DDX17 AND NLRC4 TARGETING FOR INFLAMMATORY DISEASES” (University of Virginia Patent Foundation, priority 2019, published 2022).

In series [1] the test system is NLRC4 phosphorylation (site S533). Description: Alu RNA induced NLRC4 phosphorylation (S533) in BMDM pre-treated with kinase inhibitors, immunoblot. To be noted: BMDM pre-treated 1 hour with inhibitor at 2 μM or 5 μM, then Alu RNA transfection (100 pmol). Format: cell-based, mouse. As to the method:
(§1) FIG. 2. SINE RNA induced NLRC4 phosphorylation (site S533) through protein Kinase C Delta. BMDM cell pre-treated with the LRRK2 Kinase inhibitor gsk2578215a (GSK; 5-(2-Fluoro-4-pyridinyl)-2-(phenylmethoxy)-N-3-pyridinyl-benzamide; CAS Number 1285515-21-0; Sigma-Aldrich, St. Louis, Mo., United States of America) or the PKC delta inhibitor Rottlerin (CAS Number 82-08-6; Sigma-Aldrich) at 2 μM or 5 μM, and treated with Alu RNA (SEQ ID NO: 86) transfection or transfection reagent alone (Mock). NLRC4 phosphorylation (P-NLRC4) and supernatant caspase-1 activation were detected by SDS-PAGE. […] PKC delta inhibitor, Rottlerin blocked Alu RNA-induced NLRC4 phosphorylation and caspase-1 activation. The p-NLRC4 and caspase-1 (p20) bands were indicated with black arrows.
(§2) Previous studies have shown that NLRC4 inflammasome activation in response to Salmonella exposure requires two steps for its activation, phosphorylation on Ser533 residue of NLRC4 and NAIP mediated oligomerization of NLRC4. […] Moreover, treatment with SINE RNAs induced caspase-1 p20 cleavage, indicative of inflammasome activation (FIG. 2). For the subsequent experiments in this study, we used Alu RNA (SEQ ID NO: 86) as the stimulus to activate the NLRC4 inflammasome. To date, two kinases are reported to phosphorylate NLRC4 at S533: protein kinase C delta (PKCδ) and leucine rich repeat-containing kinase-2 (LRRK2). […]
For orientation: Immunoblotting shows a protein as a band on a membrane.

The test system of series [2] is caspase-1. The series can be described thus: Alu RNA induced caspase-1 activation (p20 in supernatant) in BMDM pre-treated with kinase inhibitors. Format: cell-based, mouse. The following applies: BMDM pre-treated 1 hour with inhibitor at 2 μM or 5 μM, then Alu RNA transfection (100 pmol). As to the method: as §1, §2
Series [3] deals with the molecule itself. The series can be described thus: homo-oligomerization, Tris-glycine native PAGE, Alu RNA-transfected human RPE cells. The text has this: FIGS. 24A and 24B. Alu RNA (SEQ ID NO: 86) induced NLRC4 activation in human RPE cells. To test whether Alu RNA (SEQ ID NO: 86) induces NLRC4 activation in human RPE, we transfected human RPE with Alu RNA (SEQ ID NO: 86 at 100 pmol). FIG. 24A. Immunofluorescence staining on NLRC4 show Alu RNA (SEQ ID NO: 86) induced cytosolic NLRC4 punctate in hRPE cells. The NLRC4 aggregates induced by Alu RNA (SEQ ID NO: 86) are indicated by white arrows. FIG. 24B. Alu RNA (SEQ ID NO: 86) induced NLRC4 (p-NLRC4) phosphorylation and oligomerization. Loading control show by Actin. NLRC4 oligomers were detected by Tris-glycine native PAGE. […] The band of NLRC4 oligomers is indicated by black arrow.

Series [4] has as its target T1, human NLR family pyrin domain containing 3 (NLRP3) (human, UniProt Q96P20 1-1036).
T1 construct: Endogenous protein of human RPE cells
Description: proximity ligation assay (PLA) in human RPE cells transfected with biotinylated Alu RNA. As to the method:
FIG. 37. Alu RNA (SEQ ID NO: 86) induces the assembly of NLRC4 and NLRP3 complex. Human RPE cells were transfected with biotinylated Alu RNA (SEQ ID NO: 86 at 100 pmol) by LIPOFECTAMINE™ 3000 brand transfection reagent (Lipo; ThermoFisher Scientific). The assembly of NLRC4 and NLRP3 complex was evaluated by Proximity Ligation Assay (PLA). […] The signal of NLRC4-NLRP3 complexes is indicated by the white arrow.
Human RPE cells were treated with biotinylated Alu RNA (SEQ ID NO: 86 at 100 pmol). The assembly of NLRC4 and NLRP3 complex was evaluated by Proximity Ligation Assay (PLA).

Entries after “also recorded” stand apart in the source; their conditions may differ.

T1 sequence (Q96P20 whole entry, the tested form may be a part): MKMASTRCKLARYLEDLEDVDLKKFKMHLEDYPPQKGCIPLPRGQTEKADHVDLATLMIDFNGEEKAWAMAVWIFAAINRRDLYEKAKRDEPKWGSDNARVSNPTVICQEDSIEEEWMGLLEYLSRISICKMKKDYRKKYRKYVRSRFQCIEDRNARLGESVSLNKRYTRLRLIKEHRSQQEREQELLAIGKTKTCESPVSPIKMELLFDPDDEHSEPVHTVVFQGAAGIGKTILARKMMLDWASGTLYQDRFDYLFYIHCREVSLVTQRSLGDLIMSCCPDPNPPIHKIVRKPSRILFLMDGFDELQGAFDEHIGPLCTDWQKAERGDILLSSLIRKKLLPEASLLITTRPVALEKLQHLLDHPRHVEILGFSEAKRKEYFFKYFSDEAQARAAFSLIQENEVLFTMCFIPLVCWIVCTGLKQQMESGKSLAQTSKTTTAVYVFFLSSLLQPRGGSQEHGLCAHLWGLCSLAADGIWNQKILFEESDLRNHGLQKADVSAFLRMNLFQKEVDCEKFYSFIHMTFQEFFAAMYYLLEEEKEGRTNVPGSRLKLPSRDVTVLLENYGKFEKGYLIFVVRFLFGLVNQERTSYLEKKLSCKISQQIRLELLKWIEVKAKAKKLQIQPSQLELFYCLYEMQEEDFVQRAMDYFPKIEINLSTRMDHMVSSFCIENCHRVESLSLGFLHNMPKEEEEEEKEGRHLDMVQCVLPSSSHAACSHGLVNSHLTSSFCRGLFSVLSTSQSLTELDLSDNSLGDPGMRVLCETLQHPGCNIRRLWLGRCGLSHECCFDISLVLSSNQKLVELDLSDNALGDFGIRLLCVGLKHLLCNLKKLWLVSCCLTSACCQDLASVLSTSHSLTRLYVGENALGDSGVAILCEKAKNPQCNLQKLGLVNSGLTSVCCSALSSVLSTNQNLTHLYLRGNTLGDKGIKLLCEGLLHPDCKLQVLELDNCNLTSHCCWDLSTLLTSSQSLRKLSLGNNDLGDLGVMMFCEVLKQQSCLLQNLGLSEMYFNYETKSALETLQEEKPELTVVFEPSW

Consider `CC(=O)c1c(O)c(C)c(O)c(Cc2c(O)c3c(c(C(=O)/C=C/c4ccccc4)c2O)OC(C)(C)C=C3)c1O` [Rottlerin], for which, in series [1], the “Alu RNA induced phosphorylation of NLRC4” value was “blocked; also recorded: inhibited”. Also, in series [2], the “Alu RNA induced caspase-1 activation” value is “blocked; also recorded: inhibited”.

B1: human NLR family CARD domain containing 4 (NLRC4) (receptor)
chain: MNFIKDNSRALIQRMGMTVIKQITDDLFVWNVLNREEVNIICCEKVEQDAARGIIHMILKKGSESCNLFLKSLKEWNYPLFQDLNGQSLFHQTSEGDLDDLAQDLKDLYHTPSFLNFYPLGEDIDIIFNLKSTFTEPVLWRKDQHHHRVEQLTLNGLLQALQSPCIIEGESGKGKSTLLQRIAMLWGSGKCKALTKFKFVFFLRLSRAQGGLFETLCDQLLDIPGTIRKQTFMAMLLKLRQRVLFLLDGYNEFKPQNCPEIEALIKENHRFKNMVIVTTTTECLRHIRQFGALTAEVGDMTEDSAQALIREVLIKELAEGLLLQIQKSRCLRNLMKTPLFVVITCAIQMGESEFHSHTQTTLFHTFYDLLIQKNKHKHKGVAASDFIRSLDHCGDLALEGVFSHKFDFELQDVSSVNEDVLLTTGLLCKYTAQRFKPKYKFFHKSFQEYTAGRRLSSLLTSHEPEEVTKGNGYLQKMVSISDITSTYSSLLRYTCGSSVEATRAVMKHLAAVYQHGCLLGLSIAKRPLWRQESLQSVKNTTEQEILKAININSFVECGIHLYQESTSKSALSQEFEAFFQGKSLYINSGNIPDYLFDFFEHLPNCASALDFIKLDFYGGAMASWEKAAEDTGGIHMEEAPETYIPSRAVSLFFNWKQEFRTLEVTLRDFSKLNKQDIRYLGKIFSSATSLRLQIKRCAGVAGSLSLVLSTCKNIYSLMVEASPLTIEDERHITSVTNLKTLSIHDLQNQRLPGGLTDSLGNLKNLTKLIMDNIKMNEEDAIKLAEGLKNLKKMCLFHLTHLSDIGEGMDYIVKSLSSEPCDLEEIQLVSCCLSANAVKILAQNLHNLVKLSILDLSENYLEKDGNEALHELIDRMNVLEQLTALMLPWGCDVQGSLSSLLKHLEEVPQLVKLGLKNWRLTDTEIRILGAFFGKNPLKNFQQLNLAGNRVSSDGWLAFMGVFENLKQLVFFDFSTKEFLPDPALVRKLSQVLSKLTFLQEARLVGWQFDDDDLSVITGAFKLVTA
notes: Endogenous protein of human RPE cells and of human donor eyes
For the molecule B1, the binding result in series [3] and in series [4] was “binds” each time.
